Assay results: ChEMBL document CHEMBL2150993, “Substituted thiazoles VII. Synthesis and antitumor activity of certain 2-(substituted amino)-4-phenyl-1,3-thiazole analogs” (2012)

What was measured:
Type in all cases: functional
[1] = Antiproliferative activity against human leukemia cells after 48 hrs by cell counting analysis
[2] = Antiproliferative activity against human non-small cell lung cancer cells after 48 hrs by cell counting analysis; conditions: Cancer cell lines
[3] = Antiproliferative activity against human colon cancer cells after 48 hrs by cell counting analysis; conditions: Cancer cell lines
[4] = Antiproliferative activity against human CNS cancer cells after 48 hrs by cell counting analysis; conditions: Cancer cell lines
[5] = Antiproliferative activity against human melanoma cells after 48 hrs by cell counting analysis
[6] = Antiproliferative activity against human ovarian cancer cells after 48 hrs by cell counting analysis; conditions: Cancer cell lines
[7] = Antiproliferative activity against human renal cancer cells after 48 hrs by cell counting analysis; conditions: Cancer cell lines
[8] = Antiproliferative activity against human prostate cancer cells after 48 hrs by cell counting analysis; conditions: Cancer cell lines
[9] = Antiproliferative activity against human breast cancer cells after 48 hrs by cell counting analysis; conditions: Cancer cell lines
CCRF-CEM = assay: Growth inhibition of human CCRF-CEM cells after 48 hrs by cell counting analysis; conditions: at 10 µM
HL-60 = assay: Growth inhibition of human HL60 cells after 48 hrs by cell counting analysis; conditions: at 10 µM
K562 = assay: Growth inhibition of human K562 cells after 48 hrs by cell counting analysis; conditions: at 10 µM
RPMI-8226 = assay: Growth inhibition of human RPMI8226 cells after 48 hrs by cell counting analysis; conditions: at 10 µM
SR = assay: Growth inhibition of human SR cells after 48 hrs by cell counting analysis; conditions: at 10 µM
A549 = assay: Growth inhibition of human A549 cells after 48 hrs by cell counting analysis; conditions: at 10 µM
EKVX = assay: Growth inhibition of human EKVX cells after 48 hrs by cell counting analysis; conditions: at 10 µM
HOP-62 = assay: Growth inhibition of human HOP62 cells after 48 hrs by cell counting analysis; conditions: at 10 µM
HOP-92 = assay: Growth inhibition of human HOP92 cells after 48 hrs by cell counting analysis; conditions: at 10 µM
NCI-H226 = assay: Growth inhibition of human NCI-H226 cells after 48 hrs by cell counting analysis; conditions: at 10 µM
NCI-H23 = assay: Growth inhibition of human NCI-H23 cells after 48 hrs by cell counting analysis; conditions: at 10 µM
[10] = Growth inhibition of human NCI-322M cells after 48 hrs by cell counting analysis; conditions: at 10 µM
NCI-H522 = assay: Growth inhibition of human NCI-H522 cells after 48 hrs by cell counting analysis; conditions: at 10 µM
HCC 2998 = assay: Growth inhibition of human HCC2998 cells after 48 hrs by cell counting analysis; conditions: at 10 µM
HCT-15 = assay: Growth inhibition of human HCT15 cells after 48 hrs by cell counting analysis; conditions: at 10 µM
HT-29 = assay: Growth inhibition of human HT-29 cells after 48 hrs by cell counting analysis; conditions: at 10 µM
KM12 = assay: Growth inhibition of human KM12 cells after 48 hrs by cell counting analysis; conditions: at 10 µM
SW-620 = assay: Growth inhibition of human SW620 cells after 48 hrs by cell counting analysis; conditions: at 10 µM
SF-268 = assay: Growth inhibition of human SF268 cells after 48 hrs by cell counting analysis; conditions: at 10 µM
SF-295 = assay: Growth inhibition of human SF295 cells after 48 hrs by cell counting analysis; conditions: at 10 µM
SF-539 = assay: Growth inhibition of human SF539 cells after 48 hrs by cell counting analysis; conditions: at 10 µM
SNB-19 = assay: Growth inhibition of human SNB19 cells after 48 hrs by cell counting analysis; conditions: at 10 µM
SNB-75 = assay: Growth inhibition of human SNB75 cells after 48 hrs by cell counting analysis; conditions: at 10 µM
U-251 = assay: Growth inhibition of human U251 cells after 48 hrs by cell counting analysis; conditions: at 10 µM
LOX IMVI = assay: Growth inhibition of human LOXIMVI cells after 48 hrs by cell counting analysis; conditions: at 10 µM
Malme-3M = assay: Growth inhibition of human MALME-3M cells after 48 hrs by cell counting analysis; conditions: at 10 µM
M14 = assay: Growth inhibition of human M14 cells after 48 hrs by cell counting analysis; conditions: at 10 µM
MDA-MB-435 = assay: Growth inhibition of human MDA-MB-435 cells after 48 hrs by cell counting analysis; conditions: at 10 µM
SK-MEL-2 = assay: Growth inhibition of human SK-MEL-2 cells after 48 hrs by cell counting analysis; conditions: at 10 µM
SK-MEL-28 = assay: Growth inhibition of human SK-MEL-28 cells after 48 hrs by cell counting analysis; conditions: at 10 µM
SK-MEL-5 = assay: Growth inhibition of human SK-MEL-5 cells after 48 hrs by cell counting analysis; conditions: at 10 µM
UACC-257 = assay: Growth inhibition of human UACC257 cells after 48 hrs by cell counting analysis; conditions: at 10 µM
UACC-62 = assay: Growth inhibition of human UACC62 cells after 48 hrs by cell counting analysis; conditions: at 10 µM
IGROV-1 = assay: Growth inhibition of human IGROV1 cells after 48 hrs by cell counting analysis; conditions: at 10 µM
OVCAR-3 = assay: Growth inhibition of human OVCAR3 cells after 48 hrs by cell counting analysis; conditions: at 10 µM
OVCAR-4 = assay: Growth inhibition of human OVCAR4 cells after 48 hrs by cell counting analysis; conditions: at 10 µM
OVCAR-5 = assay: Growth inhibition of human OVCAR5 cells after 48 hrs by cell counting analysis; conditions: at 10 µM
OVCAR-8 = assay: Growth inhibition of human OVCAR8 cells after 48 hrs by cell counting analysis; conditions: at 10 µM
[11] = Growth inhibition of human NCI-ADR-RES cells after 48 hrs by cell counting analysis; conditions: at 10 µM
SK-OV-3 = assay: Growth inhibition of human SKOV3 cells after 48 hrs by cell counting analysis; conditions: at 10 µM
ACHN = assay: Growth inhibition of human ACHN cells after 48 hrs by cell counting analysis; conditions: at 10 µM
CAKI-1 = assay: Growth inhibition of human Caki1 cells after 48 hrs by cell counting analysis; conditions: at 10 µM
RXF 393 = assay: Growth inhibition of human RXF393 cells after 48 hrs by cell counting analysis; conditions: at 10 µM
SN12C = assay: Growth inhibition of human SN12C cells after 48 hrs by cell counting analysis; conditions: at 10 µM
TK-10 = assay: Growth inhibition of human TK10 cells after 48 hrs by cell counting analysis; conditions: at 10 µM
UO-31 = assay: Growth inhibition of human UO31 cells after 48 hrs by cell counting analysis; conditions: at 10 µM
PC-3 = assay: Growth inhibition of human PC3 cells after 48 hrs by cell counting analysis; conditions: at 10 µM
MCF7 = assay: Growth inhibition of human MCF7 cells after 48 hrs by cell counting analysis; conditions: at 10 µM
MDA-MB-231 = assay: Growth inhibition of human MDA-MB-231 cells after 48 hrs by cell counting analysis; conditions: at 10 µM
BT-549 = assay: Growth inhibition of human BT549 cells after 48 hrs by cell counting analysis; conditions: at 10 µM
T47D = assay: Growth inhibition of human T47D cells after 48 hrs by cell counting analysis; conditions: at 10 µM
MDA-MB-468 = assay: Growth inhibition of human MDA-MB-468 cells after 48 hrs by cell counting analysis; conditions: at 10 µM
MOLT-4 = assay: Growth inhibition of human MOLT4 cells after 48 hrs by cell counting analysis; conditions: at 10 µM
HCT-116 = assay: Growth inhibition of human HCT116 cells after 48 hrs by cell counting analysis; conditions: at 10 µM
[12] = read-out: LC50 (the source's name)

## O=c1[nH]cc(F)c(=O)[nH]1 [FLUOROURACIL]
[1]
  TGI: > 100 µM
[1]; [12]
  CC50: > 100 µM
[2]
  GI50: > 100 µM
  TGI: > 100 µM
[2]; [12]
  CC50: > 100 µM
[3]
  GI50: 8.4 µM
  TGI: > 100 µM
[3]; [12]
  CC50: > 100 µM
[4]
  TGI: > 100 µM
[4]; [12]
  CC50: > 100 µM
[5]
  GI50: 70.6 µM
  TGI: > 100 µM
[5]; [12]
  CC50: > 100 µM
[6]
  GI50: 61.4 µM
  TGI: > 100 µM
[6]; [12]
  CC50: > 100 µM
[7]
  GI50: 45.6 µM
  TGI: > 100 µM
[7]; [12]
  CC50: > 100 µM
[8]
  GI50: 22.7 µM
  TGI: > 100 µM
[8]; [12]
  CC50: > 100 µM
[9]
  GI50: 76.4 µM
  TGI: > 100 µM
[9]; [12]
  CC50: > 100 µM

## Cc1ccc(-c2csc(NC(=O)CN3CCN(c4ccccc4)CC3)n2)cc1
CCRF-CEM
  growth inhibition (GI): 13.4%
HL-60
  growth inhibition (GI): <10%
K562
  growth inhibition (GI): <10%
RPMI-8226
  growth inhibition (GI): <10%
SR
  growth inhibition (GI): <10%
A549
  growth inhibition (GI): 31.4%
EKVX
  growth inhibition (GI): 32.5%
HOP-62
  growth inhibition (GI): <10%
HOP-92
  growth inhibition (GI): <10%
NCI-H226
  growth inhibition (GI): <10%
NCI-H23
  growth inhibition (GI): 18.9%
[10]
  growth inhibition (GI): 21.4%
NCI-H522
  growth inhibition (GI): <10%
HCC 2998
  growth inhibition (GI): 15.2%
HCT-15
  growth inhibition (GI): 10.6%
HT-29
  growth inhibition (GI): <10%
KM12
  growth inhibition (GI): <10%
SW-620
  growth inhibition (GI): <10%
SF-268
  growth inhibition (GI): 13.9%
SF-295
  growth inhibition (GI): 27.3%
SF-539
  growth inhibition (GI): <10%
SNB-19
  growth inhibition (GI): <10%
SNB-75
  growth inhibition (GI): 12.1%
U-251
  growth inhibition (GI): <10%
LOX IMVI
  growth inhibition (GI): 17.2%
Malme-3M
  growth inhibition (GI): <10%
M14
  growth inhibition (GI): <10%
MDA-MB-435
  growth inhibition (GI): 17.6%
SK-MEL-2
  growth inhibition (GI): <10%
SK-MEL-28
  growth inhibition (GI): <10%
SK-MEL-5
  growth inhibition (GI): 27.6%
UACC-257
  growth inhibition (GI): <10%
UACC-62
  growth inhibition (GI): 23.6%
IGROV-1
  growth inhibition (GI): 33.8%
OVCAR-3
  growth inhibition (GI): <10%
OVCAR-4
  growth inhibition (GI): 28.1%
OVCAR-5
  growth inhibition (GI): <10%
OVCAR-8
  growth inhibition (GI): <10%
[11]
  growth inhibition (GI): 21%
SK-OV-3
  growth inhibition (GI): <10%
ACHN
  growth inhibition (GI): <10%
CAKI-1
  growth inhibition (GI): 24.6%
RXF 393
  growth inhibition (GI): <10%
SN12C
  growth inhibition (GI): 17%
TK-10
  growth inhibition (GI): <10%
UO-31
  growth inhibition (GI): 48.2%
PC-3
  growth inhibition (GI): 31.1%
MCF7
  growth inhibition (GI): 20.9%
MDA-MB-231
  growth inhibition (GI): <10%
BT-549
  growth inhibition (GI): <10%
T47D
  growth inhibition (GI): 20.8%
MDA-MB-468
  growth inhibition (GI): 23.1%
MOLT-4
  growth inhibition (GI): 23.7%
HCT-116
  growth inhibition (GI): <10%
